The results in this text go back to article PMC10392749, “PIP5K1C phosphoinositide kinase deficiency distinguishes PIKFYVE-dependent cancer cells from non-malignant cells” (Autophagy, 2023).

Each structure is given as a SMILES string.

One test addresses PIKFYVE (Homo sapiens, UniProt Q9Y2I7). As to the kind of experiment: KiNativ ATP-probe chemoproteomics in A375 cells treated with WX8; in vitro kinase binding assay (Fig. 2F). In kind it is cell-based. The following applies: A-375.
For the next test, the target named is T1, CHUK/IKKA (Homo sapiens, UniProt O15111).
T1 sequence (O15111 1-745): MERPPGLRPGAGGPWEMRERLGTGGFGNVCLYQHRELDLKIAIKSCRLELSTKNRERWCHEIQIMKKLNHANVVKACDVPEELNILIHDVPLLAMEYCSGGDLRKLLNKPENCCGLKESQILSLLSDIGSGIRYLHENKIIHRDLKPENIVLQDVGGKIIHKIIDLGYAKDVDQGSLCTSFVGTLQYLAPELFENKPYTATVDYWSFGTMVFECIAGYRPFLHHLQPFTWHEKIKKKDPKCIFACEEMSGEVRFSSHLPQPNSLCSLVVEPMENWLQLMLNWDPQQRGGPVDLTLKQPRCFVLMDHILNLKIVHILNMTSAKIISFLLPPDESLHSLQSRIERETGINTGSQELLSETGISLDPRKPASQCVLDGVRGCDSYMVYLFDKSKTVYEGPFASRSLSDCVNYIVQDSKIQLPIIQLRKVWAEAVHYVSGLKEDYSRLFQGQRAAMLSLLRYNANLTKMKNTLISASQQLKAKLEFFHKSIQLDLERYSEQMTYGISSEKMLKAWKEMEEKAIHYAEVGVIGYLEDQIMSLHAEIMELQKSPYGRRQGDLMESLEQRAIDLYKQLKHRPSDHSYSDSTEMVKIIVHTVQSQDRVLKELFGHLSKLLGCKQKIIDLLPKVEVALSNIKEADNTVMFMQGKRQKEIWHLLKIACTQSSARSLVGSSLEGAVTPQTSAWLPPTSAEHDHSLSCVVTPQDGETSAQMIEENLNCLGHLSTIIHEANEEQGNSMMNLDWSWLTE
As to the kind of experiment: KiNativ ATP-probe chemoproteomics in A375 cells treated with WX8. It counts as cell-based. The following applies: A-375.

The next test concerns the target T2, PIP4K2C (Homo sapiens, UniProt Q8TBX8).
T2 sequence (Q8TBX8 2-421): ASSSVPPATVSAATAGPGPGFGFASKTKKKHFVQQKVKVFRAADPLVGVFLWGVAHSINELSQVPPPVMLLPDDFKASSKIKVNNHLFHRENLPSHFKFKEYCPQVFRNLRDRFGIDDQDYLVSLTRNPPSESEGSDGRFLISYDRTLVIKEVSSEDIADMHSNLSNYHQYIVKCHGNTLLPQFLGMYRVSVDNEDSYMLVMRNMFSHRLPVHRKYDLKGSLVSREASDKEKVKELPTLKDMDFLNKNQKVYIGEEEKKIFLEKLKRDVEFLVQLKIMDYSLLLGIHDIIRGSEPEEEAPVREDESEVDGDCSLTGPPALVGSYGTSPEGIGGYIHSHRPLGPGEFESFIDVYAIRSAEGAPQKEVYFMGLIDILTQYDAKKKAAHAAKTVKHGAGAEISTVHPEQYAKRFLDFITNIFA
As to the kind of experiment: KiNativ ATP-probe chemoproteomics in A375 cells treated with WX8; in vitro kinase binding assay (Fig. 2F). It counts as biochemical.

Chain of PIKFYVE (Q9Y2I7 2-2098): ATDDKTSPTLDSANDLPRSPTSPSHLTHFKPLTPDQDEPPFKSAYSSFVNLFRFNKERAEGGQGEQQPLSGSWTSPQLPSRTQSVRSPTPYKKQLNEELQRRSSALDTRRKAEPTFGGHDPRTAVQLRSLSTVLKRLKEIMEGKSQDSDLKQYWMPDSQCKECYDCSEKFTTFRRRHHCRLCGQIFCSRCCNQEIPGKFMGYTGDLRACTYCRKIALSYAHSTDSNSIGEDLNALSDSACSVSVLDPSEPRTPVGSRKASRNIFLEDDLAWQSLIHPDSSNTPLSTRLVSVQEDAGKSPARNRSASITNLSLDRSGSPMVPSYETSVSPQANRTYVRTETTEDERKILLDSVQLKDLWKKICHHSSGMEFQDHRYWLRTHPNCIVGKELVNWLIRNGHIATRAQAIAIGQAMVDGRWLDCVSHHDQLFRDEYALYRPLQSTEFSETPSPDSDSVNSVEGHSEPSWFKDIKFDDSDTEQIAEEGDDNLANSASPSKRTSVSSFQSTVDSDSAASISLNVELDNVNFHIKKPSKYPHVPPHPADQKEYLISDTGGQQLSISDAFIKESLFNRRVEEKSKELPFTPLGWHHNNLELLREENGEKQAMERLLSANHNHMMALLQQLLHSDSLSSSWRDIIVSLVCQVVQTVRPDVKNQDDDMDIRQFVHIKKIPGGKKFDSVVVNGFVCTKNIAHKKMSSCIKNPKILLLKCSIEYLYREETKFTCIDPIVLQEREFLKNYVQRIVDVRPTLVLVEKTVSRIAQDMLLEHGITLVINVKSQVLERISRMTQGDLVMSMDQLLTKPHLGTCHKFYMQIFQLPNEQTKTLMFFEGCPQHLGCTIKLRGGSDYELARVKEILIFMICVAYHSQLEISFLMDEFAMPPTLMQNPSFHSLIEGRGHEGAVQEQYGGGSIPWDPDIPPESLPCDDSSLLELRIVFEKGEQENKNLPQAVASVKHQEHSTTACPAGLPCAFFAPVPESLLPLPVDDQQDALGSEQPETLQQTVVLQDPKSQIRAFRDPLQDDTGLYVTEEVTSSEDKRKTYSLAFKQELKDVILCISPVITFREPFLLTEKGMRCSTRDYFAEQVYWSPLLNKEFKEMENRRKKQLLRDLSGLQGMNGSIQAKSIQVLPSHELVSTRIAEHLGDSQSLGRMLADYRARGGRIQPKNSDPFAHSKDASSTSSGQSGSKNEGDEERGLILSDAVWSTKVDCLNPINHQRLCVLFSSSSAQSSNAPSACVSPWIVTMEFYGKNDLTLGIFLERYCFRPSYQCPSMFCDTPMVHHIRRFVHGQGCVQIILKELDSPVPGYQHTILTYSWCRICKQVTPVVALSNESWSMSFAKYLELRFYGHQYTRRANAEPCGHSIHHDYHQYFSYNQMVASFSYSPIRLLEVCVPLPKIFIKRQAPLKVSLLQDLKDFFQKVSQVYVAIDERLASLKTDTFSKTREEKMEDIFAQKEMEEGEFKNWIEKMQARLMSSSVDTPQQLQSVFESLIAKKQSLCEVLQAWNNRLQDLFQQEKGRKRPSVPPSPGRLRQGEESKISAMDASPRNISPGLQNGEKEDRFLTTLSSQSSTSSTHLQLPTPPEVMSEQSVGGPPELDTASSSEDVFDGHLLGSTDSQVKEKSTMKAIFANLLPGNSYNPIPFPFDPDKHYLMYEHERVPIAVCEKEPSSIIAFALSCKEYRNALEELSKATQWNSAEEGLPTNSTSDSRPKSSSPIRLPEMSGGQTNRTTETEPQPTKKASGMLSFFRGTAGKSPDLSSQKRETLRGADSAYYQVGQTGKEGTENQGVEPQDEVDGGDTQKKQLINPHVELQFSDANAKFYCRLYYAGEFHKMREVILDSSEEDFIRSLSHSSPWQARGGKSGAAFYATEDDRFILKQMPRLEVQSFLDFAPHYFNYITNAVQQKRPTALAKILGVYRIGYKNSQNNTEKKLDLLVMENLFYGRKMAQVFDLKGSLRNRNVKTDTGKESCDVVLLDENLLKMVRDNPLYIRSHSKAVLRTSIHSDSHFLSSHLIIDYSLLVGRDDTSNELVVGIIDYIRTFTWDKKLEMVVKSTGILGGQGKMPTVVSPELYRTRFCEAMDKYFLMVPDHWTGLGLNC

Take `C(=NNc1nc(Nc2ccccc2)nc(N2CCOCC2)n1)c1c[nH]c2ccccc12` [WX8, 1H-indole-3-carbaldehyde (4-anilino-6-[4-morpholinyl]-1,3,5-triazin-2-yl)hydrazone]: the inhibition – broadly, the change of the read-out against control, counted positive when it falls – at 1 µM turned out to be 97% at PIKFYVE and 39% against CHUK/IKKA. In addition, the IC50 (as a rule, the concentration that inhibits the measured activity by half) at PIP4K2C was ~1000 nM.
